Like-named read-outs stand apart in the source and are kept apart here.
Columns and labels:
Bbp [1] = format: biochemical, Brucella suis
Bbp [2] = format: biochemical, Brucella suis; remark: listed apart in the source

SMILES	Km (Bbp [1]) [µM]	Km (Bbp [2]) [µM]
O=P(O)(O)OC[C@H]1OC(O)(COP(=O)(O)O)[C@@H](O)[C@@H]1O (some centres unmarked) [F1,6bP]	53.2 ± 6.3	–
O=C(COP(=O)(O)O)[C@@H](O)[C@H](O)[C@H](O)[C@H](O)COP(=O)(O)O [S1,7bP]	–	13.9 ± 3.2
